Biological target: PAR4 (Homo sapiens (Human), UniProt Q96RI0)
Assay: PAR4 FLIPR assay (antagonism of agonist-peptide-induced calcium mobilization)
Assay type: cell-based
Details: H-Ala-Phe(4-F)-Pro-Gly-Trp-Leu-Val-Lys-Asn-Gly-NH2-induced intracellular calcium mobilization, PAR4-expressing HEK293 cells; read-out: PAR4 FLTPR assay (IC50)
Method in brief: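 HEK293 cells stably expressing human PAR4 (also endogenous PAR1), loaded with fluorescent calcium indicator in HBSS/20 mM HEPES; compounds added at 0.17% DMSO, read on FDSS for agonism, then 30 min RT before H-Ala-Phe(4-F)-peptide agonist challenge. Potency from 11-point concentration-response curves.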

Sequence of PAR4 (Q96RI0 18-385): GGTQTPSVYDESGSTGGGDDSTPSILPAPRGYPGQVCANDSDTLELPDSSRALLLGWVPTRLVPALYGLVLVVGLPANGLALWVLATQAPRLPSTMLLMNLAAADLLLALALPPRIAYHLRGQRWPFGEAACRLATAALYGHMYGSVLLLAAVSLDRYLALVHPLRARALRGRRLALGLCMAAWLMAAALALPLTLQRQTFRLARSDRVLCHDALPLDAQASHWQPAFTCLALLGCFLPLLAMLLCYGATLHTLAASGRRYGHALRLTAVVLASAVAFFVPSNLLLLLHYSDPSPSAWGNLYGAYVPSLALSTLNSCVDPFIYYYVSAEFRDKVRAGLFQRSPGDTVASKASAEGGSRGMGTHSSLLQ

Row | SMILES | IC50 [nM]
1 | COc1cnc2c(-c3nc4cc(F)c(O[C@@H]5CC[C@@H]5OC(=O)Nc5cnc(C)nc5)cc4s3)cc(C)cc2n1 [Example 67] | 0.99
2 | COc1cnc2c(-c3nc4cc(F)c(O[C@@H]5CC[C@@H]5OC(=O)Nc5cnc(OCCO)nc5)cc4s3)cc(C)cc2n1 [Example 68] | 0.75
3 | COc1cnc2c(-c3nc4cc(F)c(O[C@H]5CC[C@H]5OC(=O)Nc5cnc(C)nc5)cc4s3)cc(C)cc2n1 [Example 69] | 1.2
4 | COc1cnc2c(-c3nc4cc(F)c(O[C@@H]5CC[C@@H]5OC(=O)Nc5cnc(CCO)nc5)cc4s3)cc(C)cc2n1 [Example 70] | 9
5 | COc1ccc(NC(=O)O[C@H]2CC[C@H]2Oc2cc3sc(-c4cc(C)cc5nc(OC)cnc45)nc3cc2F)cn1 [Example 72] | 1.1
6 | COc1ccc(NC(=O)O[C@@H]2CC[C@@H]2Oc2cc3sc(-c4cc(C)cc5nc(OC)cnc45)nc3cc2F)cn1 [Example 73] | 0.5
7 | CCOc1cnc2c(-c3nc4cc(F)c(O[C@@H]5CC[C@@H]5OC(=O)Nc5cnc(OCCO)nc5)cc4s3)cc(C)cc2n1 [Example 75] | 5.9
8 | COc1cnc2c(-c3nc4cc(F)c(O[C@@H]5CC[C@@H]5OC(=O)Nc5cnc(OCCO)nc5)cc4s3)cc(Cl)cc2c1 [Example 76] | 10
9 | CCOc1cnc2c(-c3nc4cc(F)c(O[C@@H]5CC[C@@H]5OC(=O)Nc5cnc(OCCO)nc5)cc4s3)cc(Cl)cc2c1 [Example 77] | 9.2
10 | COc1cnc2c(-c3nc4cc(F)c(O[C@@H]5CC[C@@H]5OC(=O)Nc5cnc(OCCO)nc5)cc4s3)cc(Cl)cc2n1 [Example 78] | 9.7
11 | COc1cnc2c(-c3nc4cc(F)c(O[C@@H]5CC[C@@H]5OC(=O)Nc5cnc(OCCO)nc5)cc4s3)cc(C#N)cc2n1 [Example 80] | 7
12 | COc1cnc2c(-c3nc4cc(F)c(O[C@@H]5CC[C@@H]5OC(=O)Nc5cnc(OCCO)nc5)cc4s3)cc(F)cc2c1 [Example 81] | 9.2
13 | COc1cnc2c(-c3nc4cc(F)c(O[C@H]5CC(F)(F)C[C@H]5OC(=O)Nc5cnc(C)nc5)cc4s3)cc(C)cc2n1 [Example 100] | 1.3

Reference: patent US10730868B2, “Bicyclic heteroaryl substituted compounds” (BRISTOL-MYERS SQUIBB COMPANY, priority 2016, dated 2020)
